This is an account of results in US8410090B2, “Heterocyclylamide-substituted thiazoles, pyrroles and thiophenes” (AiCuris GmbH & Co. KG, priority 2005, dated 2013).

Series [1] is described as follows: Cytostatic effect on NHDF cells in the anti-HCMV cytopathogenicity test. It is filed as cell-based. The following applies: human, NHDF cells (human prepuce fibroblasts); maximum concentration with no visible cytostatic effects on NHDF cells vs untreated cell control; 6 days incubation. The protocol:
Anti-HCMV (Anti-Human Cytomegalovirus) Cytopathogenicity Tests The test compounds are employed as 50 millimolar (mM) solutions in dimethyl sulphoxide (DMSO). Ganciclovir, foscarnet and cidofovir are used as reference compounds. After addition of in each case 2 μl of the 50, 5, 0.5 and 0.05 mM DMSO stock solutions to 98 μl portions of cell culture medium in row […] for duplicate determinations, 1:2 dilutions are carried out with 50 μl portions of medium up to row 11 of the 96-well plate. The wells in rows 1 and 12 each contain 50 μl of medium. Then 150 μl portions of a suspension of 1×10^4 cells (human prepuce fibroblasts [NHDF]) are pipetted into each of the wells (row 1=cell control) and, in rows 2-12, a mixture of HCMV-infected and uninfected NHDF cells (M.O.I.=0.001-0.002), i.e. 1-2 infected cells per 1000 uninfected cells. Row 12 (without substance) serves as virus control. The final test concentrations are 250-0.0005 μM. The plates are incubated at 37° C./5% CO2 for 6 days, i.e. until all the cells are infected in the virus controls (100% cytopathogenic effect [CPE]). The wells are then fixed and stained by adding a mixture of formalin and Giemsa's dye (30 minutes), washed with double-distilled water and dried in a drying oven at 50° C. The plates are then assessed visually using an overhead microscope (Plaque Multiplier from Technomara). The following data can be acquired from the test plates: CC50 (NHDF)=maximum substance concentration in μM at which no visible cytostatic effects on the cells are evident by comparison with the untreated cell control;

Series [2] has as its system HCMV. Kind of series: Anti-HCMV cytopathogenicity test (CPE inhibition). The format is cell-based, human cytomegalovirus. Particulars: for EC50: Human betaherpesvirus 5, 144 h, concentration inhibiting CPE by 50% vs untreated virus control, HCMV-infected NHDF cells, M.O.I. 0.001-0.002, 6 days; for SI HCMV (selectivity index = CC50 (NHDF)/EC50 (HCMV)): ratio CC50 (NHDF)/EC50 (HCMV). The protocol: Anti-HCMV (Anti-Human Cytomegalovirus) Cytopathogenicity Tests The test compounds are employed as 50 millimolar (mM) solutions in dimethyl sulphoxide (DMSO). Ganciclovir, foscarnet and cidofovir are used as reference compounds. After addition of in each case 2 μl of the 50, 5, 0.5 and 0.05 mM DMSO stock solutions to 98 μl portions of cell culture medium in row […] for duplicate determinations, 1:2 dilutions are carried out with 50 μl portions of medium up to row 11 of the 96-well plate. The wells in rows 1 and 12 each contain 50 μl of medium. Then 150 μl portions of a suspension of 1×10^4 cells (human prepuce fibroblasts [NHDF]) are pipetted into each of the wells (row 1=cell control) and, in rows 2-12, a mixture of HCMV-infected and uninfected NHDF cells (M.O.I.=0.001-0.002), i.e. 1-2 infected cells per 1000 uninfected cells. Row 12 (without substance) serves as virus control. The final test concentrations are 250-0.0005 μM. The plates are incubated at 37° C./5% CO2 for 6 days, i.e. until all the cells are infected in the virus controls (100% cytopathogenic effect [CPE]). The wells are then fixed and stained by adding a mixture of formalin and Giemsa's dye (30 minutes), washed with double-distilled water and dried in a drying oven at 50° C. The plates are then assessed visually using an overhead microscope (Plaque Multiplier from Technomara). The following data can be acquired from the test plates: EC50 (HCMV)=substance concentration in μM which inhibits the CPE (cytopathic effect) by 50% compared with the untreated virus control; SI (selectivity index)=CC50 (NHDF)/EC50 (HCMV).

For the molecule `CCn1cc(NC(=O)Nc2ccc(OC(F)(F)F)cc2)cc1C(=O)N1CCN(c2ccc(C)cn2)CC1` [Example 4, N-(1-Ethyl-5-{[4-(5-methylpyridin-2-yl)piperazin-1-yl]carbonyl}-1H-pyrrol-3-yl)-N′-[4-(trifluoromethoxy)phenyl]urea], the midpoint of cytotoxicity in series [1], the CC50 at 6 days, lay at 21 µM. Further, in series [2], the EC50 – broadly, the concentration giving half of the maximal effect – came to 0.0007 µM and the “SI HCMV (selectivity index = CC50 (NHDF)/EC50 (HCMV))” value came out at 28767.
In the case of `Cc1ccc(N2CCN(C(=O)c3nc(NC(=O)Nc4ccc(OC(F)(F)F)cc4)sc3C)CC2)nc1` [Example 14], the CC50 (commonly the concentration that lowers cell viability or growth by half) at 6 days in series [1] stood at 11 µM. Also, in series [2], a half-maximal response (EC50) required 0.0016 µM and the “SI HCMV (selectivity index = CC50 (NHDF)/EC50 (HCMV))” value is reported as 7333.
For `Cc1ccc(N2CCN(C(=O)c3cnc(NC(=O)Nc4ccc(OC(F)(F)F)cc4)s3)CC2)nc1` [Example 23] the same measures were 11 µM, 0.0054 µM and 2637.
The molecule `Cc1ccc(N2CCN(C(=O)c3cc(NC(=O)Nc4ccc(OC(F)(F)F)cc4)cs3)CC2)nc1` [Example 9, N-(5-{[4-(5-Methylpyridin-2-yl)piperazin-1-yl]carbonyl}-3-thienyl)-N′-[4-(trifluoromethoxy)-phenyl]urea] displayed a CC50 at 6 days in series [1] of 21 µM. Further, in series [2], the midpoint of the response, the EC50, lay at 0.0059 µM and the “SI HCMV (selectivity index = CC50 (NHDF)/EC50 (HCMV))” value was found to be 3559.
